Several values for one entry are separate records, joined by “and”; a condition that tells them apart may be missing. Equal values may be shown once. Inconclusive results and toxic doses are left out. Cut-off read from the data, not from the text of the source: active = T/C of 150% or more; inactive = T/C below 125%.
Tested on: L1210 leukemia ip in BDF1 mice, survival T/C
Assay: NCI In Vivo Anticancer Drug Screen. Data for tumor model L1210 Leukemia (intraperitoneal) in B6D2F1 (BDF1) mice
Conditions: endpoint: mean survival time, higher = longer survival
Summary of the method: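 Survival endpoint. Drug-treated group vs vehicle group, expressed as T divided by C. Tumor passaged by transplantation.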

[1] = dose: 100.0 mg/kg/injection, schedule: Q01DX009 (ip), vehicle: saline with Tween-80

Measured: T/C

NS(=O)(=O)c1ccc(N2CCCCC2)c([N+](=O)[O-])c1
inactive: dose: 100.0 mg/kg/injection, schedule: Q01DX005 (ip), vehicle: other 105 % of control | dose: 200.0 mg/kg/injection, schedule: Q01DX005 (ip), vehicle: other 94 % of control | dose: 400.0 mg/kg/injection, schedule: Q01DX005 (ip), vehicle: other 108 % of control

C/C=C/C=C\COC(=O)C(C)C
inactive: dose: 100.0 mg/kg/injection, schedule: Q04DX002 (ip), vehicle: saline 103 % of control | dose: 200.0 mg/kg/injection, schedule: Q04DX002 (ip), vehicle: saline 96 % of control | dose: 400.0 mg/kg/injection, schedule: Q04DX002 (ip), vehicle: saline 114 % of control

CN(C)C(=O)c1cccc(NC(=O)NCc2cccc(N3C(N)=NC(N)=NC3(C)C)c2)c1
inactive: [1] 91 % of control | dose: 100.0 mg/kg/injection, schedule: Q04DX003 (ip), vehicle: saline with Tween-80 97 % of control

Cc1ccc(S(=O)(=O)Nc2ncc([N+](=O)[O-])s2)cc1
inactive: dose: 12.5 mg/kg/injection, schedule: Q01DX009 (ip), vehicle: saline with Tween-80 101 % of control | dose: 25.0 mg/kg/injection, schedule: Q01DX009 (ip), vehicle: saline with Tween-80 101 % of control | dose: 50.0 mg/kg/injection, schedule: Q01DX009 (ip), vehicle: saline with Tween-80 98 % of control and 90 % of control

CCN=C(N)c1ccc(N=C(N)c2cccc(C(N)=Nc3ccc(C(N)=NCC)cc3)c2)cc1
inactive: dose: 3.75 mg/kg/injection, schedule: Q01DX Z (ip), vehicle: saline 104 % of control | dose: 15.0 mg/kg/injection, schedule: Q01DX Z (ip), vehicle: saline 120 % of control

CNC(=N)c1ccc(NC(=N)c2ccc(NC(=N)c3ccc(NC(=N)c4ccc(C(=N)NC)cc4)cc3)cc2)cc1
inactive: dose: 4.4 mg/kg/injection, schedule: Q01DX015 (sc), vehicle: water 102 % of control | dose: 5.5 mg/kg/injection, schedule: Q01DX Z (ip), vehicle: water 116 % of control | dose: 6.7 mg/kg/injection, schedule: Q01DX015 (sc), vehicle: water 107 % of control | dose: 7.5 mg/kg/injection, schedule: Q01DX001 (ip), vehicle: water 104 % of control | dose: 10.0 mg/kg/injection, schedule: Q01DX015 (sc), vehicle: water 112 % of control | dose: 15.0 mg/kg/injection, schedule: Q01DX001 (ip), vehicle: water 106 % of control | dose: 30.0 mg/kg/injection, schedule: Q01DX001 (ip), vehicle: water 106 % of control | dose: 44.0 mg/kg/injection, schedule: Q01DX Z (ip), vehicle: water 100 % of control
active: dose: 16.0 mg/kg/injection, schedule: Q01DX015 (ip), vehicle: water 216 % of control | dose: 22.0 mg/kg/injection, schedule: Q01DX Z (ip), vehicle: water 191 % of control | dose: 22.5 mg/kg/injection, schedule: Q01DX015 (sc), vehicle: water 184 % of control

NC(N)=NN=C1CCC(C2CCCCC2)CC1 (centres undefined)
inactive: dose: 15.0 mg/kg/injection, schedule: Q01DX Z (ip), vehicle: methylcellulose (MC) 95 % of control | dose: 30.0 mg/kg/injection, schedule: Q01DX Z (ip), vehicle: methylcellulose (MC) 97 % of control | dose: 30.0 mg/kg/injection, schedule: Q01DX Z (oral), vehicle: methylcellulose (MC) 92 % of control | dose: 60.0 mg/kg/injection, schedule: Q01DX Z (ip), vehicle: methylcellulose (MC) 92 % of control | dose: 60.0 mg/kg/injection, schedule: Q01DX Z (oral), vehicle: methylcellulose (MC) 92 % of control | dose: 120.0 mg/kg/injection, schedule: Q01DX Z (ip), vehicle: methylcellulose (MC) 92 % of control | dose: 120.0 mg/kg/injection, schedule: Q01DX Z (oral), vehicle: methylcellulose (MC) 93 % of control

CC1(C[N+](=O)[O-])CCCC(=O)C1 (centres undefined)
inactive: dose: 75.0 mg/kg/injection, schedule: Q01DX001 (ip), vehicle: saline 98 % of control

c1ccc2cc(Nc3ccc4ccccc4c3)ccc2c1
inactive: [1] 106 % of control | dose: 200.0 mg/kg/injection, schedule: Q01DX009 (ip), vehicle: saline with Tween-80 108 % of control | dose: 400.0 mg/kg/injection, schedule: Q01DX009 (ip), vehicle: saline with Tween-80 101 % of control

O=c1cc(Nc2ccc(Cl)cc2)[nH]c(=O)[nH]1
inactive: dose: 100.0 mg/kg/injection, schedule: Q01DX001 (ip), vehicle: gum acacia 101 % of control | dose: 400.0 mg/kg/injection, schedule: Q01DX001 (ip), vehicle: gum acacia 101 % of control

O=C1Oc2ccccc2C1=O
inactive: dose: 50.0 mg/kg/injection, schedule: Q01DX009 (ip), vehicle: saline 98 % of control | dose: 75.0 mg/kg/injection, schedule: Q01DX001 (ip), vehicle: other 101 % of control | dose: 100.0 mg/kg/injection, schedule: Q01DX009 (ip), vehicle: saline 102 % of control | dose: 100.0 mg/kg/injection, schedule: Q04DX003 (ip), vehicle: saline 109 % of control | dose: 150.0 mg/kg/injection, schedule: Q01DX001 (ip), vehicle: other 101 % of control | dose: 200.0 mg/kg/injection, schedule: Q01DX009 (ip), vehicle: saline 91 % of control | dose: 200.0 mg/kg/injection, schedule: Q04DX003 (ip), vehicle: saline 98 % of control
